Experimental findings from patent US11021490B2, “Pyridinium oxazole dyad scaffold and a process for preparation thereof” (COUNCIL OF SCIENTIFIC AND INDUSTRIAL RESEARCH, priority 2016, dated 2021) are described below.

The nature of series [1]: Spectral (photophysical) properties of representative derivatives in DCM at room temperature. Format: physicochemical. Also noted: τf (fluorescent lifetime): unit not given here. Conditions: for ΔStokes (Stokes shift=λem−λabs) / λabs (maximum absorption band more than 300 nm) / λem (excited at the longest maximum absorption band) / λex (excited wavelength) / τf (fluorescent lifetime) / ϕf (quantum yield): DCM, RM, 10−5M; for ϕf (quantum yield): quinine sulfate and rhodamine 6G as standard; for Effect of substituent on the fluorescent properties / emission: CH2Cl2 at RT. The text has this:
The photo-physical properties of representative salts are studied in CH2Cl2 at RT (FIG. 1).
The corresponding absorption, emission and excitation, spectra are depicted in FIGS. 3, 4 and 5. […] The compounds display good quantum yields upto 0.76.
a The maximum absorption bands more than 300 nm; b Excited at the longest maximum absorption band in CH2Cl2; ^cExcited wavelength; ^dStokes shift=λem−λabs; ^eQuinine sulfate and rhodamine 6G was used as the standard; ^fFluorescent lifetime
The current invention provides compounds that display brightly fluorescence as well as a good ϕf. The salts are a novel class of fluorescent materials that contain a pyridinium-oxazole functional group and the photo-physical properties of representative salts are studied in CH2Cl2 at RT The absorption and excitation maxima, the photoluminescence (PL) maxima and quantum yields (FF), as well as the excited state lifetimes (tf) of these compounds in CH2Cl2 solution are listed in Tables 3, whereas the corresponding absorption, emission, excitation spectra are depicted in FIGS. 3, 4 and 5. […] These observations are indicative of a predominant π-π* character for the lowest excited state, and the life time tf values are consistent with a singlet multiplicity. Most of these compounds display good quantum yields upto 0.76 (3n). The radiative rate constants are barely affected by the substitution pattern, an indication of the similar excited state character for all compounds.

For a further series, the system named is MCF-7 cells. The series is described as follows: Localization and staining of mitochondria in living MCF-7 cells by fluorescence microscopy, with MitoTracker Green costaining. In kind it is cell-based. Conditions: 1 μM, 1 h. On the procedure: MCF-7 cells were obtained from National Centre for Cell Science, Pune, India. For bio imaging purpose, the cells were seeded in a 6 well plate at a density of 10^5 cells/mL in Dulbecco's Modified Eagle's Medium+Ham's F12 containing 10% fetal bovine serum and a 0.1% antibiotic solution for 24 h at […] and 5% CO2 for adherence
MCF-7 cells (1×10^4 cells/mL/well) were seeded in a 6-well tissue culture plate for 48 h. The cells were then treated with 1 μM concentration of different organic molecules for 30 minutes. After thorough washing with 1×PBS (P^H 7.4), the cells are fixed used paraformaldehye (4% in PBS) for 15 minutes. Then cells were washed using 1×PBS twice. Further cells are permeated using 0.4% triton X in PBS for 30 seconds followed by treatment with 1 μg/mL of DAPI solution for 15 minutes. The cells are again ished twice with 1×PBS (P^H 7.4). Finally, a confocal fluorescence microscope (Nikon Eclipse: TE 2000-E, Japan). Bioimaging studies are carried out using red and green filters. (FIG. 2)
Cells are cultured and maintained as described above. Cells were treated with 1 μM compound for 30 min followed by washing with PBS. Further cells were treated with […] MG for 10 min and then washed with PBS. Cells were fixed and treated with DAPI as described above.
MCF-7 cells were incubated with 1 μM of 3n for 1 h, and excess dyes were washed away by buffer solution.

The term melting point denotes the temperature, or range, at which the solid turns liquid. In the case of `F[B-](F)(F)F.c1ccc2c(c1)-c1cccc3oc(-c4cccc5ccccc45)c-2[n+]13`, the melting point was 198 to 200 °C.

As to `Cc1ccc(-c2oc3cccc4[n+]3c2-c2ccccc2-4)cc1.F[B-](F)(F)F`, the melting point fell in the range of 222 to 223 °C.

For the compound `CC(C)c1ccc(-c2oc3cccc4[n+]3c2-c2ccccc2-4)cc1.F[B-](F)(F)F`, the melting point was 214 to 215 °C.

`CCCCOc1ccc(-c2oc3cccc4[n+]3c2-c2ccccc2-4)cc1.F[B-](F)(F)F` gave a melting point of 183 to 185 °C.

Consider `CCCCC(=O)c1ccc(-c2oc3cccc4[n+]3c2-c2ccccc2-4)cc1.F[B-](F)(F)F`, for which the melting point fell in the range of 202 to 204 °C.

In turn, `COc1ccccc1-c1oc2cccc3[n+]2c1-c1ccccc1-3.F[B-](F)(F)F` yielded a melting point of 228 to 229 °C.

As to `Clc1cccc(-c2oc3cccc4[n+]3c2-c2ccccc2-4)c1.F[B-](F)(F)F`, the melting point was 204 to 206 °C.

For the compound `Cc1cccc2c1-c1cccc3oc(-c4ccccc4)c-2[n+]13.F[B-](F)(F)F`, the melting point was 220 to 221 °C.

In the case of `Cc1ccc2c(c1)-c1cccc3oc(-c4ccccc4)c-2[n+]13.F[B-](F)(F)F`, the melting point lay in the range of 224 to 226 °C.

Regarding `F[B-](F)(F)F.Fc1ccc2c(c1)-c1cccc3oc(-c4ccccc4)c-2[n+]13`, the melting point was 255 to 256 °C.

Regarding `Clc1ccc2c(c1)-c1cccc3oc(-c4ccccc4)c-2[n+]13.F[B-](F)(F)F`, the melting point was in the range of 208 to 210 °C.

In the case of `Clc1ccc2c(c1)-c1c(-c3ccccc3)oc3cccc-2[n+]13.F[B-](F)(F)F`, the melting point is 206 to 208 °C.

As to `F[B-](F)(F)F.c1ccc(-c2oc3cccc4[n+]3c2-c2ccccc2-4)cc1` [3a, 1-phenylbenzo[a]oxazolo[4,3,2-cd]indolizin-10-ium tetrafluoroborate], the melting point lay within 192 to 193 °C. Besides, in series [1], the “ΔStokes (Stokes shift=λem−λabs)” value is recorded as 036 nm, the “λabs (maximum absorption band more than 300 nm)” value stood at 368 nm, the “λem (excited at the longest maximum absorption band)” value was determined as 404 nm and the “λex (excited wavelength)” value is given as 338 nm. Besides, in series [1], the “τf (fluorescent lifetime)” value is listed as 1.2 and the “ϕf (quantum yield)” value is recorded as 0.10.

As to `F[B-](F)(F)F.c1ccc2c(c1)-c1cccc3oc(-c4ccc5ccccc5c4)c-2[n+]13` [3c, 1-(naphthalen-2-yl)benzo[a]oxazolo[4,3,2-cd]indolizin-10-iumtetrafluoroborate], in series [1], the “Effect of substituent on the fluorescent properties / emission” value is “stronger effect on the fluorescent properties”, the “ΔStokes (Stokes shift=λem−λabs)” value is 071 nm, the “λabs (maximum absorption band more than 300 nm)” value was determined as 410 nm and the “λem (excited at the longest maximum absorption band)” value was determined as 481 nm. In series [1], the “λex (excited wavelength)” value came out at 364 nm, the “τf (fluorescent lifetime)” value amounted to 5.2 and the “ϕf (quantum yield)” value was 0.49.

Turning to `F[B-](F)(F)F.c1ccc2c(c1)-c1cccc3oc(-c4cc5ccccc5c5ccccc45)c-2[n+]13` [3d, 1-(phenanthren-9-yl)benzo[a]oxazolo[4,3,2-cd]indolizin-10-ium tetrafluoroborate], the melting point lay within 230 to 232 °C. In addition, in series [1], the “Effect of substituent on the fluorescent properties / emission” value is “stronger effect on the fluorescent properties”, the “ΔStokes (Stokes shift=λem−λabs)” value worked out at 076 nm, the “λabs (maximum absorption band more than 300 nm)” value worked out at 411 nm and the “λem (excited at the longest maximum absorption band)” value is listed as 487 nm. In series [1], the “λex (excited wavelength)” value is reported as 365 nm, the “τf (fluorescent lifetime)” value stood at 7.2 and the “ϕf (quantum yield)” value was determined as 0.54.

Compound `COc1ccc(-c2oc3cccc4[n+]3c2-c2ccccc2-4)cc1.F[B-](F)(F)F` [3j, 1-(4-methoxyphenyl)benzo[a]oxazolo[4,3,2-cd]indolizin-10-ium tetrafluoroborate] showed a melting point of 190 to 192 °C. In series [1], the “Effect of substituent on the fluorescent properties / emission” value was “only a modest effect on the fluorescent properties”, the “ΔStokes (Stokes shift=λem−λabs)” value is 053 nm, the “λabs (maximum absorption band more than 300 nm)” value is recorded as 405 nm and the “λem (excited at the longest maximum absorption band)” value turned out to be 458 nm. Moreover, in series [1], the “λex (excited wavelength)” value was 338 nm, the “τf (fluorescent lifetime)” value is 2.4 and the “ϕf (quantum yield)” value came to 0.42.

For `F[B-](F)(F)F.Fc1ccc(-c2oc3cccc4[n+]3c2-c2ccccc2-4)cc1` [3l, 1-(4-fluorophenyl)benzo[a]oxazolo[4,3,2-cd]indolizin-10-ium tetrafluoroborate], the melting point was in the range of 254 to 255 °C. Moreover, in series [1], the “Effect of substituent on the fluorescent properties / emission” value is recorded as “only a modest effect on the fluorescent properties”, the “ΔStokes (Stokes shift=λem−λabs)” value amounted to 042 nm, the “λabs (maximum absorption band more than 300 nm)” value was found to be 372 nm and the “λem (excited at the longest maximum absorption band)” value came to 414 nm. In series [1], the “λex (excited wavelength)” value worked out at 343 nm, the “τf (fluorescent lifetime)” value was found to be 0.9 and the “ϕf (quantum yield)” value is recorded as 0.09.

With `Clc1ccc(-c2oc3cccc4[n+]3c2-c2ccccc2-4)cc1.F[B-](F)(F)F` [3m, 1-(4-chlorophenyl)benzo[a]oxazolo[4,3,2-cd]indolizin-10-ium tetrafluoroborate], the melting point is 274 to 275 °C. Also, in series [1], the “ΔStokes (Stokes shift=λem−λabs)” value is given as 040 nm, the “λabs (maximum absorption band more than 300 nm)” value worked out at 370 nm, the “λem (excited at the longest maximum absorption band)” value is 410 nm and the “λex (excited wavelength)” value amounted to 339 nm. Also, in series [1], the “τf (fluorescent lifetime)” value turned out to be 1.7 and the “ϕf (quantum yield)” value is 0.19.

Consider `CN(C)c1ccc(-c2oc3cccc4[n+]3c2-c2ccccc2-4)cc1.F[B-](F)(F)F` [3n, 1-(4-(dimethylamino)phenyl)benzo[a]oxazolo[4,3,2-cd]indolizin-10-ium tetrafluoroborate], for which the melting point was 242 to 244 °C. In the series on MCF-7 cells, the “Staining / localization in mitochondria” value is “stains specifically the mitochondrial region”. For the same compound, in series [1], the “ΔStokes (Stokes shift=λem−λabs)” value is reported as 049 nm, the “λabs (maximum absorption band more than 300 nm)” value was 506 nm, the “λem (excited at the longest maximum absorption band)” value stood at 555 nm and the “λex (excited wavelength)” value was found to be 511 nm. Also, in series [1], the “τf (fluorescent lifetime)” value is 9.1 and the “ϕf (quantum yield)” value is reported as 0.76.

Take `COc1cccc(-c2oc3cccc4[n+]3c2-c2ccccc2-4)c1.F[B-](F)(F)F` [3q, 1-(3-methoxyphenyl)benzo[a]oxazolo[4,3,2-cd]indolizin-10-ium tetrafluoroborate]: the melting point is 206 to 208 °C. In series [1], the “ΔStokes (Stokes shift=λem−λabs)” value is 079 nm, the “λabs (maximum absorption band more than 300 nm)” value is listed as 376 nm, the “λem (excited at the longest maximum absorption band)” value was 455 nm and the “λex (excited wavelength)” value is reported as 332 nm. Further, in series [1], the “τf (fluorescent lifetime)” value is recorded as 2.0 and the “ϕf (quantum yield)” value is 0.20.

In the case of `COc1ccc(Cl)c(-c2cc3ccccc3c3cccc(=O)n23)c1` [3y″, 6-(2-chloro-5-methoxyphenyl)-4H-pyrido[2,1-a]isoquinolin-4-one], the melting point fell in the range of 186 to 187 °C.

For `Cc1ccc(/C=c2\c3ccccc3c3cccc(=O)n23)cc1Cl` [3z″, (E)-6-(3-chloro-4-methylbenzylidene)pyrido[2,1-a]isoindol-4(6H)-one], the melting point is 194 to 195 °C.
